Test system: Wistaria floribunda agglutinin
Test: Lectin affinity chromatography on W. floribunda agglutinin agarose
Type: binding
Details: elution with 100 mM N-acetylgalactosamine as specific inhibitor, FIG. 7
Experimental: Lectin affinity chromatography was performed as previously described (Nakano et al., Arch. Biochem. Biophys. 311, 117-126, 1994). Briefly, radiolabeled core glycans derived from glycolipid II, III (core glycan A and B respectively) and rat brain THY1 membrane anchor were applied to a 1 ml column of W. floribunda agglutinin agarose (5 mg lectin/ml gel) equilibrated in 50 mM Tris-HCl, pH 7.4 containing 0.02% sodium azide. Elution was accomplished using 25 ml of equilbration buffer followed by 15 ml of the same buffer containing 100 mM N-acetylgalactosamine as specific inhibitor.
FIG. 7: Analysis of core glycans derived from TLC purified glycolipids labelled with ^3H glucosamine on Wisaria floribunda agglutinin agarose: Core glycan A (A), core glycan (B), Man4GalNAcAHM from rat brain Thy1 anchor (C), arrow indicates buffer change

Man3(GalNAc)AHM [Core glycan A]
Affinity towards W. floribunda agglutinin column: bound to the column

— US20020058288A1, “TOXOPLASMA GONDII GLYCOCONJUGATES” (priority 1995, published 2002)
